From patent US20190084939A1, “ANALOGS OF FEXARAMINE AND METHODS OF MAKING AND USING” (Salk Institute for Biological Studies, priority 2014, published 2019)
Where two headings read alike, the source gives them in different places.

Target: T1, Human FXR full length (Homo sapiens, UniProt Q96RI1)
T1 construct: Human FXR full length and RXR full length was obtained from Ronald Evans' laboratory; expressed in transfected cells; host or cells: CV-1 cells
T1 sequence (Q96RI1 1-476 isoform Q96RI1-1): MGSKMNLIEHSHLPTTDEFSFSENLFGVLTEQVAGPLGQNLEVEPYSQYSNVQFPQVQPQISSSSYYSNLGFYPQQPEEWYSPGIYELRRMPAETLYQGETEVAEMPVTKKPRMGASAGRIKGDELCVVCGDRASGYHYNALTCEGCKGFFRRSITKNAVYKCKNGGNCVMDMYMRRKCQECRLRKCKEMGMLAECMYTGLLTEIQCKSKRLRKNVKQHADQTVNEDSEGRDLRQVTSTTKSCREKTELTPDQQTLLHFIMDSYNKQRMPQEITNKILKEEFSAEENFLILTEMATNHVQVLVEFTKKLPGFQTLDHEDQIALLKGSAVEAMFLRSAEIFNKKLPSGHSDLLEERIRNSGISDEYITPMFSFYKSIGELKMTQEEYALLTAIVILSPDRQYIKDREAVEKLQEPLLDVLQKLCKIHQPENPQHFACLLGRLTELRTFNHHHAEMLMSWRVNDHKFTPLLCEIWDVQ
T1 sequence (P19793 1-462 partner): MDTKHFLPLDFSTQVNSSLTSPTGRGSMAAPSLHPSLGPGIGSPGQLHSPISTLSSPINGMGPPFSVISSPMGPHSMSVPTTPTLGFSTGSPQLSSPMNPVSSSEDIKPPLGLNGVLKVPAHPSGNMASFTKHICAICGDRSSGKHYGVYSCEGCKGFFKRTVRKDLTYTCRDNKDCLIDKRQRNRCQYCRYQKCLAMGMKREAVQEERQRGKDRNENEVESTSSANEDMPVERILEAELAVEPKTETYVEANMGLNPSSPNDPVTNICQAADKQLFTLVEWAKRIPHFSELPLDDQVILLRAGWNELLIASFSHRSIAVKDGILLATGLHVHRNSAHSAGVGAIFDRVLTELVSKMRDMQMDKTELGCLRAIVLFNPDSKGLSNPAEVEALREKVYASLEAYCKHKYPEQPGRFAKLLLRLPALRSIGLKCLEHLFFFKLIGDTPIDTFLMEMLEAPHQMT
Experiment: FXR activity screen, luciferase reporter in transfected CV-1 cells
Assay type: cell-based
Experimental: CV-1 cells were grown in DMEM+10% charcoal stripped FCS. Cells were seeded into 384-well plates the day before transfection to give a confluency of 50-80% at transfection. A total of […] DNA containing 0.32 micrograms pCMX-hFXRfl, 0.32 micrograms pCMX-hRXRfl, 0.1 micrograms pCMXβGal, 0.08 micrograms pGLFXRE reporter and 0.02 micrograms pCMX empty vector was transfected per well using FuGene transfection reagent according to the manufacturer's instructions (Roche). Cells were allowed to express protein for 48 hours followed by addition of compound.
Human FXR full length and RXR full length was obtained from Ronald Evans' laboratory and PCR amplification of the hFXR cDNA and the hRXR cDNA was performed. The amplified cDNAs was cloned into the vector pCMX generating the plasmids pCMX-hFXRfl and pCMX-hRXRfl. Ensuing fusions were verified by sequencing. The pCMXMH2004 luciferase reporter contains multiple copies of the GAL4 DNA response element under a minimal eukaryotic promoter (Hollenberg and Evans, 1988). pCMXβGal was generated in the Evans laboratory, Salk Institute.
All compounds were dissolved in DMSO and diluted 1:1000 upon addition to the cells. Compounds were tested in quadruple in concentrations ranging from 0.001 to 100 μM. Cells were treated with compound for 24 hours followed by luciferase assay. Each compound was tested in at least two separate experiments.
Medium including test compound was aspirated and washed with PBS. 50 μL PBS including 1 mM Mg^2+ and Ca^2+ were then added to each well. The luciferase assay was performed using the LucLite kit according to the manufacturer's instructions (Packard Instruments). Light emission was quantified by counting on a Perkin Elmer Envision reader. To measure […] activity 25 μL supernatant from each transfection lysate was transferred to a new 384 microplate. Beta-galactosidase assays were performed in the microwell plates using a kit from Promega and read in a Perkin Elmer Envision reader. The beta-galactosidase data were used to normalize (transfection efficiency, cell growth etc.) the luciferase data.
The activity of a compound is calculated as fold induction compared to an untreated sample. For each compound the efficacy (maximal activity) is given as a relative activity compared to Fexaramine, a FXR agonist. The EC50 is the concentration giving 50% of maximal observed activity. EC50 values were calculated via non-linear regression using GraphPad PRISM (GraphPad Software, San Diego, Calif.).

[1] = first round, CV-1 cells, 24 hours, read-out: 1st RND EC50
[2] = second round, CV-1 cells, 24 hours, read-out: 2nd RND EC50
[3] = retest, read-out: EC50 (retested)

| SMILES | EC50 [1] [nM] | EC50 [2] [nM] | EC50 [3] [nM] |
| --- | --- | --- | --- |
| COC(=O)/C=C/c1cncc(N(Cc2cccc3cc4cnn(C)c4cc23)C(=O)[C@@H]2C[C@@H]3CC[C@H]2C3)c1 [NSSK00018] | 380 | 415 | – |
| [2H]C(c1ccc(-c2ccc(N(C)C)cc2)cc1)N(C(=O)c1ccccc1)c1cncc(/C=C/C(=O)OC)c1 (stereo not drawn) [NSSK00063] | 3000 | 1900 | – |
| [2H]C(c1ccc(-c2ccc3c(cnn3C)c2)cc1)N(C(=O)[C@@H]1C[C@@H]2CC[C@H]1C2)c1cccc(/C=C/C(=O)OC)c1 (stereo partly drawn) [NSSK00086] | 371 | 1600 | – |
| COC(=O)/C=C/c1cncc(N(Cc2ccc(-c3ccc(N(C)C)cc3)cc2)C(=O)[C@@H]2C[C@@H]3CC[C@H]2C3)c1 [NSSK00059] | 1570 | 1300 | – |
| [2H]C(c1ccc(-c2ccc(N(C)C)cc2)cc1)N(C(=O)[C@@H]1C[C@@H]2CC[C@H]1C2)c1cccc(/C=C/C(=O)OC)c1 (stereo partly drawn) [NSSK00107] | 450 | 861 | – |
| COC(=O)/C=C/c1cc(F)cc(N(Cc2ccc(-c3ccc(N(C)C)cc3)cc2)C(=O)[C@@H]2C[C@@H]3CC[C@H]2C3)c1 [NSSK00102] | 252 | 328 | – |
| COC(=O)/C=C/c1cccc(N(Cc2ccc(-c3ccc4c(cnn4C)c3)cc2F)C(=O)c2ccccc2)c1 [NSSK00057] | 606 | 795 | – |
| [2H]C(c1ccc(-c2ccc3c(cnn3C)c2)cc1Cl)N(C(=O)[C@@H]1C[C@@H]2CC[C@H]1C2)c1cc(F)cc(/C=C/C(=O)OC)c1 (stereo partly drawn) [NSSK00094] | 786 | 865 | – |
| COC(=O)/C=C/c1cc(F)cc(N(Cc2ccc(-c3ccc4c(cnn4C)c3)cc2Cl)C(=O)c2ccccc2)c1 [NSSK00100] | 1400 | 1800 | – |
| COC(=O)/C=C/c1cncc(N(Cc2cccc3cc4cnn(C)c4c(Cl)c23)C(=O)C2C[C@H]3CC[C@@H]2C3)c1 (stereo partly drawn) [NSSK00022] | 3200 | 2700 | – |
| [2H]C(c1ccc(-c2ccc3c(cnn3C)c2)cc1Cl)N(C(=O)c1ccccc1)c1cncc(/C=C/C(=O)OC)c1 (stereo not drawn) [NSSK00101] | 5900 | 15100 | – |
| [2H]C(c1ccc(-c2ccc(N(C)C)cc2)cc1)N(C(=O)[C@@H]1C[C@@H]2CC[C@H]1C2)c1cncc(/C=C/C(=O)OC)c1 (stereo partly drawn) [NSSK00026] | 587 | 910 | – |
| COC(=O)/C=C/c1cncc(N(Cc2ccc(-c3ccc(N(C)C)cc3)cc2F)C(=O)C2CCCCC2)c1 [NSSK00078] | 698 | 673 | – |
| [2H]C(c1ccc(-c2ccc3c(cnn3C)c2)cc1F)N(C(=O)C1CCCCC1)c1cc(F)cc(/C=C/C(=O)OC)c1 (stereo not drawn) [NSSK00011] | 289 | 379 | – |
| [2H]C(c1ccc(-c2ccc3c(cnn3C)c2)cc1)N(C(=O)C1CCCCC1)c1cccc(/C=C/C(=O)OC)c1 (stereo not drawn) [NSSK00033] | 169 | 254 | – |
| [2H]C(c1ccc(-c2ccc3c(cnn3C)c2)cc1F)N(C(=O)[C@@H]1C[C@@H]2CC[C@H]1C2)c1cccc(/C=C/C(=O)OC)c1 (stereo partly drawn) [NSSK00070] | 1700 | 1700 | – |
| COC(=O)/C=C/c1cccc(N(Cc2ccc(-c3ccc4c(cnn4C)c3)cc2Cl)C(=O)c2ccccc2)c1 [NSSK00098] | 655 | 670 | – |
| COC(=O)/C=C/c1cccc(N(Cc2ccc(-c3ccc(N(C)C)cc3)cc2)C(=O)[C@@H]2C[C@@H]3CC[C@H]2C3)c1 [NSSK00042] | 135 | 620 | – |

| SMILES | EC50 [1] [nM] | EC50 [2] [nM] | EC50 [3] [nM] |
| --- | --- | --- | --- |
| [2H]C(c1ccc(-c2ccc3c(cnn3C)c2)cc1)N(C(=O)c1ccccc1)c1cccc(/C=C/C(=O)OC)c1 (stereo not drawn) [NSSK00049] | 2800 | 3500 | – |
| [2H]C(c1ccc(-c2ccc3c(cnn3C)c2)cc1F)N(C(=O)[C@@H]1C[C@@H]2CC[C@H]1C2)c1cncc(/C=C/C(=O)OC)c1 (stereo partly drawn) [NSSK00066] | 5400 | 8500 | – |
| [2H]C(c1ccc(-c2ccc3c(cnn3C)c2)cc1)N(C(=O)[C@@H]1C[C@@H]2CC[C@H]1C2)c1cc(F)cc(/C=C/C(=O)OC)c1 (stereo partly drawn) [NSSK00113] | 652 | 2700 | – |
| [2H]C(c1ccc(-c2ccc(N(C)C)cc2)cc1)N(C(=O)c1ccccc1)c1cc(F)cc(/C=C/C(=O)OC)c1 (stereo not drawn) [NSSK00114] | 264 | 614 | – |
| COC(=O)/C=C/c1cncc(N(Cc2ccc(-c3ccc(N(C)C)cc3)cc2Cl)C(=O)[C@@H]2C[C@@H]3CC[C@H]2C3)c1 [NSSK00082] | 5100 | 6100 | – |
| [2H]C(c1ccc(-c2ccc3c(cnn3C)c2)cc1F)N(C(=O)C1CCCCC1)c1cccc(/C=C/C(=O)OC)c1 (stereo not drawn) [NSSK00089, methyl (E)-3-(3-(N-((2-fluoro-4-(1-methyl-1H-indazol-5-yl)phenyl)methyl-d)cyclohexanecarboxamido)phenyl)acrylate] | 383 | 406 | 366 |
| [2H]C(c1ccc(-c2ccc(N(C)C)cc2)cc1F)N(C(=O)C1CCCCC1)c1cccc(/C=C/C(=O)OC)c1 (stereo not drawn) [NSSK00027, methyl (E)-3-(3-(N-((4′-(dimethylamino)-3-fluoro-[1,1′-biphenyl]-4-yl)methyl-d)cyclohexanecarboxamido)phenyl)acrylate] | 48.9 | 46.6 | 118 |
| [2H]C(c1ccc(-c2ccc3c(cnn3C)c2)cc1)N(C(=O)c1ccccc1)c1cncc(/C=C/C(=O)OC)c1 (stereo not drawn) [NSSK00119] | 798 | 65000 | – |
| [2H]C(c1ccc(-c2ccc3c(cnn3C)c2)cc1)N(C(=O)C1CCCCC1)c1cc(F)cc(/C=C/C(=O)OC)c1 (stereo not drawn) [NSSK00096, methyl (E)-3-(3-fluoro-5-(N-((4-(1-methyl-1H-indazol-5-yl)phenyl)methyl-d)cyclohexanecarboxamido)phenyl)acrylate] | 340 | 375 | 220 |
| [2H]C(c1ccc(-c2ccc(N(C)C)cc2)cc1F)N(C(=O)c1ccccc1)c1cncc(/C=C/C(=O)OC)c1 (stereo not drawn) [NSSK00116] | – | 8600 | – |
| COC(=O)/C=C/c1cncc(N(Cc2cccc3cc4cnn(C)c4c(F)c23)C(=O)C2CCCCC2)c1 [NSSK00008] | 2000 | 1400 | – |
| [2H]C(c1ccc(-c2ccc(N(C)C)cc2)cc1Cl)N(C(=O)C1CCCCC1)c1cccc(/C=C/C(=O)OC)c1 (stereo not drawn) [NSSK00031] | 366 | 249 | – |
| COC(=O)/C=C/c1cccc(N(Cc2ccc(-c3ccc(N(C)C)cc3)cc2Cl)C(=O)c2ccccc2)c1 [NSSK00055] | 931 | 1400 | – |
| [2H]C(c1ccc(-c2ccc(N(C)C)cc2)cc1F)N(C(=O)C1CCCCC1)c1cncc(/C=C/C(=O)OC)c1 (stereo not drawn) [NSSK00030] | 656 | 375 | – |
| COC(=O)/C=C/c1cccc(N(Cc2ccc(-c3ccc(N(C)C)cc3)cc2F)C(=O)c2ccccc2)c1 [NSSK00054] | 509 | 457 | – |
| COC(=O)/C=C/c1cc(F)cc(N(Cc2ccc(-c3ccc(N(C)C)cc3)cc2Cl)C(=O)C2CCCCC2)c1 [NSSK00117] | 983 | 1300 | – |
| COC(=O)/C=C/c1cncc(N(Cc2cccc3cc4cnn(C)c4cc23)C(=O)C2CCCCC2)c1 [NSSK00005] | 1820 | 2100 | – |
